Measured values taken from the supplement of paper PMC11061612.

Key:
[1] = tested on: COR-L279 (Small Cell Lung Carcinoma); assay: combination Emax (second highest fraction inhibited in the dose matrix, 72 h); higher = more inhibition; extreme values may be limits of the assay
Outline: (§1)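 Cell lines in DMEM/F12 or RPMI with 10% FBS were plated in 1536-well plates, held 24 hours at 37°C, 5% CO2, then given two-drug dose matrices for 72 hours (DMSO typically 0.2%). Viability was read by CellTiter-Glo 2.0 luminescence and scaled as inhibition from 0 (vehicle wells) to 1 (blank wells). Combination Emax is the second-highest inhibition in the matrix; Bliss excess is observed combination effect minus expected EA + EB − EA·EB, EA and EB being single-agent effects.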

[2] = tested on: NCI-H520 (Squamous Cell Lung Carcinoma); assay: as above
Outline: as §1

[3] = tested on: MN-60 (B-Lymphoblastic Leukemia); assay: as above
Outline: as §1

[4] = tested on: NCI-H929 (Plasma Cell Myeloma); assay: as above
Outline: as §1

[5] = tested on: DMS-114 (Small Cell Lung Carcinoma); assay: as above
Outline: as §1

[6] = tested on: KP-3 (Pancreatic Carcinoma); assay: as above
Outline: as §1

[7] = tested on: NCI-H526 (Small Cell Lung Carcinoma); assay: as above
Outline: as §1

[8] = tested on: SK-GT-4 (Esophageal Adenocarcinoma); assay: as above
Outline: as §1

[9] = tested on: T-T (Esophageal Squamous Cell Carcinoma); assay: as above
Outline: as §1

[10] = tested on: VMRC-RCZ (Kidney Carcinoma); assay: as above
Outline: as §1

[11] = tested on: SJSA-1 (Osteosarcoma); assay: as above
Outline: as §1

[12] = tested on: OCI-AML3 (Acute Myeloid Leukemia); assay: as above
Outline: as §1

[13] = tested on: KU812 (Chronic Myelogenous Leukemia); assay: as above
Outline: as §1

[14] = tested on: MOG-G-CCM (Low Grade Glioma); assay: as above
Outline: as §1

[15] = tested on: NCI-H2731 (Mesothelioma); assay: as above
Outline: as §1

[16] = tested on: NCCIT (Other Solid Carcinomas); assay: as above
Outline: as §1

[17] = tested on: ST486 (Burkitt's Lymphoma); assay: as above
Outline: as §1

[18] = tested on: KYSE-270 (Esophageal Squamous Cell Carcinoma); assay: as above
Outline: as §1

[19] = tested on: M059J (Glioblastoma); assay: as above
Outline: as §1

[20] = tested on: CW-2 (Colorectal Carcinoma); assay: as above
Outline: as §1

[21] = tested on: NCI-H3122 (Lung Adenocarcinoma); assay: as above
Outline: as §1

[22] = tested on: COR-L279 (Small Cell Lung Carcinoma); assay: Bliss excess, mean over the matrix (fraction); higher = more synergy
Outline: as §1

[23] = tested on: NCI-H520 (Squamous Cell Lung Carcinoma); assay: as above
Outline: as §1

[24] = tested on: MN-60 (B-Lymphoblastic Leukemia); assay: as above
Outline: as §1

[25] = tested on: NCI-H929 (Plasma Cell Myeloma); assay: as above
Outline: as §1

[26] = tested on: DMS-114 (Small Cell Lung Carcinoma); assay: as above
Outline: as §1

[27] = tested on: KP-3 (Pancreatic Carcinoma); assay: as above
Outline: as §1

[28] = tested on: NCI-H526 (Small Cell Lung Carcinoma); assay: as above
Outline: as §1

[29] = tested on: SK-GT-4 (Esophageal Adenocarcinoma); assay: as above
Outline: as §1

[30] = tested on: T-T (Esophageal Squamous Cell Carcinoma); assay: as above
Outline: as §1

[31] = tested on: VMRC-RCZ (Kidney Carcinoma); assay: as above
Outline: as §1

[32] = tested on: SJSA-1 (Osteosarcoma); assay: as above
Outline: as §1

[33] = tested on: OCI-AML3 (Acute Myeloid Leukemia); assay: as above
Outline: as §1

[34] = tested on: KU812 (Chronic Myelogenous Leukemia); assay: as above
Outline: as §1

[35] = tested on: MOG-G-CCM (Low Grade Glioma); assay: as above
Outline: as §1

[36] = tested on: NCI-H2731 (Mesothelioma); assay: as above
Outline: as §1

[37] = tested on: NCCIT (Other Solid Carcinomas); assay: as above
Outline: as §1

[38] = tested on: ST486 (Burkitt's Lymphoma); assay: as above
Outline: as §1

[39] = tested on: KYSE-270 (Esophageal Squamous Cell Carcinoma); assay: as above
Outline: as §1

[40] = tested on: M059J (Glioblastoma); assay: as above
Outline: as §1

[41] = tested on: CW-2 (Colorectal Carcinoma); assay: as above
Outline: as §1

[42] = tested on: NCI-H3122 (Lung Adenocarcinoma); assay: as above
Outline: as §1
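Throughout, for Bliss excess, mean over the matrix: after 72 h of two-drug dosing.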

Question: Cc1cc2ncnn2cc1Nc1ncc2c(n1)n(C1CCOCC1)c(=O)n2C [AZD7648] + COc1cc([C@@H]2c3cc4c(cc3[C@@H](O[C@@H]3O[C@@H]5CO[C@@H](C)O[C@H]5[C@H](O)[C@H]3O)[C@H]3COC(=O)[C@H]23)OCO4)cc(OC)c1O [Etoposide] (first compound max 10 µM, 7x7, partner max 10 µM) was tested. Which “combination Emax” value [1] did it give?
Answer: 1

Question: And the “combination Emax” value [2]?
Answer: 0.698

Question: What about the “combination Emax” value [3] of the same compound?
Answer: 0.829

Question: And the “combination Emax” value [4]?
Answer: 0.988

Question: And the “combination Emax” value [5]?
Answer: 0.658

Question: And the “combination Emax” value [6]?
Answer: 0.312

Question: And the “combination Emax” value [7]?
Answer: 0.999

Question: What about the “combination Emax” value [8] of the same compound?
Answer: 0.387

Question: And the “combination Emax” value [9]?
Answer: 0.362

Question: And the “combination Emax” value [10]?
Answer: 0.399

Question: And the “combination Emax” value [11]?
Answer: 0.503

Question: What about the “combination Emax” value [12] of the same compound?
Answer: 0.943

Question: What about the “combination Emax” value [13] of the same compound?
Answer: 0.792

Question: And the “combination Emax” value [14]?
Answer: 0.577

Question: And the “combination Emax” value [15]?
Answer: 0.542

Question: What about the “combination Emax” value [16] of the same compound?
Answer: 0.495

Question: And the “combination Emax” value [17]?
Answer: 0.933

Question: And the “combination Emax” value [18]?
Answer: 0.871

Question: And the “combination Emax” value [19]?
Answer: 0.775

Question: And the “combination Emax” value [20]?
Answer: 0.379

Question: What about the “combination Emax” value [21] of the same compound?
Answer: 0.67

Question: What about the Bliss excess [22] of the same compound?
Answer: 0.149

Question: And the Bliss excess [23]?
Answer: 0.0639

Question: What about the Bliss excess [24] of the same compound?
Answer: 0.06

Question: What about the Bliss excess [25] of the same compound?
Answer: 0.033

Question: What about the Bliss excess [26] of the same compound?
Answer: 0.0198

Question: And the Bliss excess [27]?
Answer: -0.0136

Question: And the Bliss excess [28]?
Answer: 0.121

Question: What about the Bliss excess [29] of the same compound?
Answer: 0.0096

Question: What about the Bliss excess [30] of the same compound?
Answer: 0.0254

Question: What about the Bliss excess [31] of the same compound?
Answer: 0.0743

Question: What about the Bliss excess [32] of the same compound?
Answer: 0.0316

Question: What about the Bliss excess [33] of the same compound?
Answer: 0.123

Question: And the Bliss excess [34]?
Answer: 0.035

Question: And the Bliss excess [35]?
Answer: 0.106

Question: What about the Bliss excess [36] of the same compound?
Answer: 0.08

Question: And the Bliss excess [37]?
Answer: 0.0365

Question: What about the Bliss excess [38] of the same compound?
Answer: 0.0989

Question: What about the Bliss excess [39] of the same compound?
Answer: 0.0627

Question: What about the Bliss excess [40] of the same compound?
Answer: 0.003

Question: What about the Bliss excess [41] of the same compound?
Answer: 0.0573

Question: What about the Bliss excess [42] of the same compound?
Answer: 0.0903

Question: Which results are given for N#Cc1cnc(Nc2cc(NC[C@H]3CNCCO3)c(C(F)(F)F)cn2)cn1 [SRA737] + CCc1c2c(nc3ccc(O)cc13)-c1cc3c(c(=O)n1C2)COC(=O)[C@]3(O)CC [SN-38] (first compound max 10 µM, 7x7, partner max 0.3 µM)?
Answer: combination Emax [1]: 1; combination Emax [2]: 0.819; combination Emax [3]: 0.79; combination Emax [4]: 0.9; combination Emax [5]: 0.608; combination Emax [6]: 0.273; combination Emax [7]: 0.993; combination Emax [8]: 0.55; combination Emax [9]: 0.834; combination Emax [10]: 0.579; combination Emax [11]: 0.664; combination Emax [12]: 0.849; combination Emax [13]: 0.799; combination Emax [14]: 0.734; combination Emax [15]: 0.478; combination Emax [16]: 0.783; combination Emax [17]: 0.991; combination Emax [18]: 1; combination Emax [19]: 0.908; combination Emax [20]: 0.625; combination Emax [21]: 0.857; Bliss excess [22]: -0.0153; Bliss excess [23]: -0.0063; Bliss excess [24]: -0.0495; Bliss excess [25]: -0.0781; Bliss excess [26]: -0.0589; Bliss excess [27]: -0.0089; Bliss excess [28]: -0.0427; Bliss excess [29]: -0.0544; Bliss excess [30]: 0.0451; Bliss excess [31]: -0.0348; Bliss excess [32]: -0.0751; Bliss excess [33]: -0.067; Bliss excess [34]: -0.0939; Bliss excess [35]: -0.0105; Bliss excess [36]: -0.005; Bliss excess [37]: 0.0294; Bliss excess [38]: -0.0232; Bliss excess [39]: -0.0265; Bliss excess [40]: -0.0326; Bliss excess [41]: -0.0853; Bliss excess [42]: -0.0454

Question: For CN(CCO)CC[C@H](CSc1ccccc1)Nc1ccc(S(=O)(=O)NC(=O)c2ccc(N3CCC([C@@H](O)c4ccccc4-c4ccc(Cl)cc4)CC3)cc2)cc1S(=O)(=O)C(F)(F)F [AZD4320] + CS(=O)(=O)CCNCc1ccc(-c2ccc3ncnc(Nc4ccc(OCc5cccc(F)c5)c(Cl)c4)c3c2)o1 [Lapatinib] (first compound max 1 µM, 7x7, partner max 10 µM), which “combination Emax” value [1] is on record?
Answer: 1

Question: And the “combination Emax” value [2]?
Answer: 0.57

Question: What about the “combination Emax” value [3] of the same compound?
Answer: 0.206

Question: What about the “combination Emax” value [4] of the same compound?
Answer: 0.589

Question: What about the “combination Emax” value [5] of the same compound?
Answer: 0.36

Question: And the “combination Emax” value [6]?
Answer: 0.363

Question: What about the “combination Emax” value [7] of the same compound?
Answer: 0.995

Question: And the “combination Emax” value [8]?
Answer: 0.774

Question: What about the “combination Emax” value [9] of the same compound?
Answer: 0.935

Question: And the “combination Emax” value [10]?
Answer: 0.598

Question: And the “combination Emax” value [11]?
Answer: 0.332

Question: And the “combination Emax” value [12]?
Answer: 0.884

Question: What about the “combination Emax” value [13] of the same compound?
Answer: 0.973

Question: And the “combination Emax” value [14]?
Answer: 0.729

Question: What about the “combination Emax” value [15] of the same compound?
Answer: 0.858

Question: What about the “combination Emax” value [16] of the same compound?
Answer: 0.243

Question: What about the “combination Emax” value [17] of the same compound?
Answer: 0.96

Question: And the “combination Emax” value [18]?
Answer: 0.708

Question: And the “combination Emax” value [19]?
Answer: 0.705

Question: And the “combination Emax” value [20]?
Answer: 0.593

Question: And the “combination Emax” value [21]?
Answer: 0.281

Question: What about the Bliss excess [22] of the same compound?
Answer: 0.0862

Question: And the Bliss excess [23]?
Answer: -0.0382

Question: What about the Bliss excess [24] of the same compound?
Answer: -0.0716

Question: And the Bliss excess [25]?
Answer: 0.0248

Question: What about the Bliss excess [26] of the same compound?
Answer: 0.0146

Question: What about the Bliss excess [27] of the same compound?
Answer: -0.0588

Question: What about the Bliss excess [28] of the same compound?
Answer: 0.0898

Question: What about the Bliss excess [29] of the same compound?
Answer: 0.0451

Question: What about the Bliss excess [30] of the same compound?
Answer: -0.0055

Question: What about the Bliss excess [31] of the same compound?
Answer: -0.0072

Question: And the Bliss excess [32]?
Answer: -0.085

Question: What about the Bliss excess [33] of the same compound?
Answer: 0.0258

Question: What about the Bliss excess [34] of the same compound?
Answer: 0.0801

Question: And the Bliss excess [35]?
Answer: -0.0278

Question: What about the Bliss excess [36] of the same compound?
Answer: -0.0076

Question: And the Bliss excess [37]?
Answer: 0.0212

Question: What about the Bliss excess [38] of the same compound?
Answer: 0.0668

Question: And the Bliss excess [39]?
Answer: -0.0254

Question: What about the Bliss excess [40] of the same compound?
Answer: 0.0681

Question: What about the Bliss excess [41] of the same compound?
Answer: -0.0322

Question: And the Bliss excess [42]?
Answer: 0.0006
